This is an account of results in patent US11208412B2 (DAEGU-GYEONGBUK MEDICAL INNOVATION FOUNDATION, priority 2017, dated 2021).

Like-named read-outs stand apart in the source and are kept apart here.

What all share (experiment): Kinase selectivity, DiscoverX scanMAX Kinase assay panel (% control)
Common to all, as to format: binding

The target in assay [1] is T1, kinases of the scanMAX Kinase assay panel (Homo sapiens, UniProt Q00536).
T1 construct: purchased DiscoverX Co. (contract measurement) scanMAX Kinase assay panel
The note with it: PCTK1; 1 uM. The method in brief:
(§1)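 A 1 uM DMSO solution of compound was applied across the panel kinases, and results were expressed as % control relative to DMSO (100%) and a positive control (0%).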

For assay [2], the target named is T2, kinases of the scanMAX Kinase assay panel (Homo sapiens, UniProt Q9UHD2).
T2 construct: purchased DiscoverX Co. (contract measurement) scanMAX Kinase assay panel
T2 sequence (Q9UHD2 1-729): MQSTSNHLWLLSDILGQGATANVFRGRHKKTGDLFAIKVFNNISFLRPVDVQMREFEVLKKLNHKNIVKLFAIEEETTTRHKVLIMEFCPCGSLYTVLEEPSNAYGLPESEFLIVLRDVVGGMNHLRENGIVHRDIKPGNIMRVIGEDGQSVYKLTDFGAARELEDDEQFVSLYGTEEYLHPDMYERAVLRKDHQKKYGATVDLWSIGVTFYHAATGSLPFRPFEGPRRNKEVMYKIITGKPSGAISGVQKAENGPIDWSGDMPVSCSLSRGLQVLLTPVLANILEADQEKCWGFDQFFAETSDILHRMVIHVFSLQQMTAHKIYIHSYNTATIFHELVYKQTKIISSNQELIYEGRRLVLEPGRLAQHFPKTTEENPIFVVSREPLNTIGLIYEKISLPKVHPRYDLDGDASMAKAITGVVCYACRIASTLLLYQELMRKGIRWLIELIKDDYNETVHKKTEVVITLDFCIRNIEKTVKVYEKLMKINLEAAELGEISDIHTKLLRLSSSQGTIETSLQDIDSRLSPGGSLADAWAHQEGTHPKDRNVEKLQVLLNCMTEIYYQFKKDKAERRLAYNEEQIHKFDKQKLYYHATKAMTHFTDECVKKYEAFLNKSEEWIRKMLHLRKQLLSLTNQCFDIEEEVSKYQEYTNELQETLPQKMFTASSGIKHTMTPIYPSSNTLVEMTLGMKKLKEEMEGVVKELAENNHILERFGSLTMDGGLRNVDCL
The conditions noted are these: kinase TBK1; 1 uM in DMSO. The method in brief:
as §1

Assay [3] concerns the target T3, kinases of the scanMAX Kinase assay panel (Homo sapiens, UniProt P46734).
T3 construct: purchased DiscoverX Co. (contract measurement) scanMAX Kinase assay panel
T3 sequence (P46734 1-347): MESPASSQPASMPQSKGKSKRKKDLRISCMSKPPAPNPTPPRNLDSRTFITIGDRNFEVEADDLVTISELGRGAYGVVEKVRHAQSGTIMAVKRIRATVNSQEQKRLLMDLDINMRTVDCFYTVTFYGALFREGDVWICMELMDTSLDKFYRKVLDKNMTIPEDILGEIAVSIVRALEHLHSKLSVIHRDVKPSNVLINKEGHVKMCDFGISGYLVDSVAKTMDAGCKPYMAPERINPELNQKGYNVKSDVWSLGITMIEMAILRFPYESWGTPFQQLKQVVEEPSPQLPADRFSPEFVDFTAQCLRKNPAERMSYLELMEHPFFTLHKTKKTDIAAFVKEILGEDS
The note with it: MEK3; 1 uM. The essentials: as §1

For assay [4], the target named is T4, kinases of the scanMAX Kinase assay panel (Homo sapiens, UniProt O94804).
T4 construct: purchased DiscoverX Co. (contract measurement) scanMAX Kinase assay panel
T4 sequence (O94804 whole entry): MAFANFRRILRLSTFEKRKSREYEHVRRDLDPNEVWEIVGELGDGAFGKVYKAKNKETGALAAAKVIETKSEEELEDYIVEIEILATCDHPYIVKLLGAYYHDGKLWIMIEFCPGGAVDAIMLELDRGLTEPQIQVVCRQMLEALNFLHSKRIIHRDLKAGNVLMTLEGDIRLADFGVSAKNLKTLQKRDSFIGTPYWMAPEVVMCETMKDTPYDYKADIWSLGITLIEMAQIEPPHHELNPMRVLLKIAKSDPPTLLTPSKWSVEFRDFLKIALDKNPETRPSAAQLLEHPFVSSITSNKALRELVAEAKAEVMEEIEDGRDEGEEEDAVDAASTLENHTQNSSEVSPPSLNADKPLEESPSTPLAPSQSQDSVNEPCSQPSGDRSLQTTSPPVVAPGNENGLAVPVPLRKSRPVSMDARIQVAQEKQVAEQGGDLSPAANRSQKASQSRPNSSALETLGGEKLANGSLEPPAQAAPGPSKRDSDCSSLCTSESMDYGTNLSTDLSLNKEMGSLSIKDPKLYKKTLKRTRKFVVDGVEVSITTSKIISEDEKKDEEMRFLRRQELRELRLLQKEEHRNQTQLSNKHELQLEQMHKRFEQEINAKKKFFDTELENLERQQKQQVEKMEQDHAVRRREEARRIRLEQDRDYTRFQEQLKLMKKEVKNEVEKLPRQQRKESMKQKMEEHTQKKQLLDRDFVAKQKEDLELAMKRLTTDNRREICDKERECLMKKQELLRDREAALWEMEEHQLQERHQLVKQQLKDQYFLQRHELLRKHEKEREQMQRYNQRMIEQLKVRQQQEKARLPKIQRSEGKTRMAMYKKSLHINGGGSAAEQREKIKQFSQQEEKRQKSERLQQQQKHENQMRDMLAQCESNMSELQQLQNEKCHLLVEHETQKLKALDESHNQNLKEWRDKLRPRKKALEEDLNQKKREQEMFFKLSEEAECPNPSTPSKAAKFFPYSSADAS
The conditions noted are these: LOK; 1 uM. The method in brief:
as §1

The target in assay [5] is T5, kinases of the scanMAX Kinase assay panel (Homo sapiens, UniProt O60331).
T5 construct: purchased DiscoverX Co. (contract measurement) scanMAX Kinase assay panel
T5 sequence (O60331 whole entry): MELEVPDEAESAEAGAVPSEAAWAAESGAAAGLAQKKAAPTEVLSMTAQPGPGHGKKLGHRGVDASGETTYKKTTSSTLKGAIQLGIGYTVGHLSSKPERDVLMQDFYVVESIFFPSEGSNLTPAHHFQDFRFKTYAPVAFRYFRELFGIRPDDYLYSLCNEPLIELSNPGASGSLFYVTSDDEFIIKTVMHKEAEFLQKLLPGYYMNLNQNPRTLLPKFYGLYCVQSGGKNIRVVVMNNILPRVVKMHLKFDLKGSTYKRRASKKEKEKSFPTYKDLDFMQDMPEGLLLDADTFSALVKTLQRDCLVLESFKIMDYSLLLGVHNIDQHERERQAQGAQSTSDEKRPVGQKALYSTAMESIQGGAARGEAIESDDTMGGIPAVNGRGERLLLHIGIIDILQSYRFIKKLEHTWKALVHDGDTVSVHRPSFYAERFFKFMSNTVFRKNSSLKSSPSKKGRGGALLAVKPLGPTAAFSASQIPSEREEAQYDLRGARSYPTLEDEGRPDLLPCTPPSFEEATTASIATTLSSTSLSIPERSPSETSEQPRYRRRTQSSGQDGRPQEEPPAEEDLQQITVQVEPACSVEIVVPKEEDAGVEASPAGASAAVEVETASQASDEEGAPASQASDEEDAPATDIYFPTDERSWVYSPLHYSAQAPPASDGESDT
The conditions noted are these: PIP5K1C; 1 uM. The method in brief: as §1

In assay [6] the target is T6, kinases of the scanMAX Kinase assay panel (Homo sapiens, UniProt P29597).
T6 construct: purchased DiscoverX Co. (contract measurement) scanMAX Kinase assay panel
T6 sequence (P29597 whole entry): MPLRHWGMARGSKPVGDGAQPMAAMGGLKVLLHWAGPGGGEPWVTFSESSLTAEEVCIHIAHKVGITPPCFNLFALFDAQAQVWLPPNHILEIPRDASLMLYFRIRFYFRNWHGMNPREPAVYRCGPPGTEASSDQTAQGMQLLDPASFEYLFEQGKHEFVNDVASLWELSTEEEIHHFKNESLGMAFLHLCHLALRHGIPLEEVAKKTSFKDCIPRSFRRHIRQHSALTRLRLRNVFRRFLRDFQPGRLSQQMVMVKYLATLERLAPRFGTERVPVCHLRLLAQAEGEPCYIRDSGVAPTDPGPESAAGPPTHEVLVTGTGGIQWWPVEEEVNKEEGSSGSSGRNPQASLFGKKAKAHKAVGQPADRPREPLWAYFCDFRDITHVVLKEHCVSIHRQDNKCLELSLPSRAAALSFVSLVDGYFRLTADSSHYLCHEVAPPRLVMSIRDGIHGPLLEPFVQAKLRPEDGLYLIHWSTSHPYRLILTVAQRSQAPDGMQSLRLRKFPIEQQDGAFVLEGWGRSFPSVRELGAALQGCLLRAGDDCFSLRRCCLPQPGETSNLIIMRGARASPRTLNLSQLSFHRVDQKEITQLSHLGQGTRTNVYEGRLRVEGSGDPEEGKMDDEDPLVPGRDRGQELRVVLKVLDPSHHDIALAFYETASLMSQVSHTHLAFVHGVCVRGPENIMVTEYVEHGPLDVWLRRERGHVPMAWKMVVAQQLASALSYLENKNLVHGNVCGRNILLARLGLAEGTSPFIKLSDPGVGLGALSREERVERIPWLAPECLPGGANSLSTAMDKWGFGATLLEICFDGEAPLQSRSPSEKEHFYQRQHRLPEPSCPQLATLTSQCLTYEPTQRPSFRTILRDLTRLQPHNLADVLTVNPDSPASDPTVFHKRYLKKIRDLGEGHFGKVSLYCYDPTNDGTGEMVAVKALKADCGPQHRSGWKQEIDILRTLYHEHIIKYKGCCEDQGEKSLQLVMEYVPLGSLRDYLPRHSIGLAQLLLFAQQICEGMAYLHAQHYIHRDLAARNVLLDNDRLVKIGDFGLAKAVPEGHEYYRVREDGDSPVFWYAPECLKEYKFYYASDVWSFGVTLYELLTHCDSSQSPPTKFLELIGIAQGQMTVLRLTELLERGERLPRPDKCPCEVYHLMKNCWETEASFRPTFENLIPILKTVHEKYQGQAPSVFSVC
The note with it: 1 uM in DMSO. The essentials: as §1

Assay [7] addresses T7, kinases of the scanMAX Kinase assay panel (Homo sapiens, UniProt P20794).
T7 construct: purchased DiscoverX Co. (contract measurement) scanMAX Kinase assay panel
T7 sequence (P20794 1-623): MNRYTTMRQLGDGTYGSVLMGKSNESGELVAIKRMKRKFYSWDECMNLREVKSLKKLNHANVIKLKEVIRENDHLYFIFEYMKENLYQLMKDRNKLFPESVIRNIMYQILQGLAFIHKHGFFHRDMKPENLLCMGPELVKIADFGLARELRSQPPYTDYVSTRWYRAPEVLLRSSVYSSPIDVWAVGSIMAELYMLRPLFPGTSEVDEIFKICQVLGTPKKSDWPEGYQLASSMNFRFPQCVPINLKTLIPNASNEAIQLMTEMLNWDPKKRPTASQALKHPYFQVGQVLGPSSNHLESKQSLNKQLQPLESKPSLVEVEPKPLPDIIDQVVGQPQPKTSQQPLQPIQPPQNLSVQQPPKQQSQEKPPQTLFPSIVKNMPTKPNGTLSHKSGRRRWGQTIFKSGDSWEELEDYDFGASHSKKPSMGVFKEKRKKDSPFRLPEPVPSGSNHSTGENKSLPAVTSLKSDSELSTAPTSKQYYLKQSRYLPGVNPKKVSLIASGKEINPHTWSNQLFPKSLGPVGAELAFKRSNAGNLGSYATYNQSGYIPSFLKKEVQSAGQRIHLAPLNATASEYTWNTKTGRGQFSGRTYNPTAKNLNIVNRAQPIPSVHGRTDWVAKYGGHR
The conditions noted are these: MAK; 1 uM. The method in brief: as §1

Assay [8] deals with T8, kinases of the scanMAX Kinase assay panel (Homo sapiens, UniProt Q16584).
T8 construct: purchased DiscoverX Co. (contract measurement) scanMAX Kinase assay panel
The conditions noted are these: MLK3; 1 uM. The method in brief:
as §1

Assay [9] deals with T9, kinases of the scanMAX Kinase assay panel (Homo sapiens, UniProt O95747).
T9 construct: purchased DiscoverX Co. (contract measurement) scanMAX Kinase assay panel
T9 sequence (O95747 whole entry): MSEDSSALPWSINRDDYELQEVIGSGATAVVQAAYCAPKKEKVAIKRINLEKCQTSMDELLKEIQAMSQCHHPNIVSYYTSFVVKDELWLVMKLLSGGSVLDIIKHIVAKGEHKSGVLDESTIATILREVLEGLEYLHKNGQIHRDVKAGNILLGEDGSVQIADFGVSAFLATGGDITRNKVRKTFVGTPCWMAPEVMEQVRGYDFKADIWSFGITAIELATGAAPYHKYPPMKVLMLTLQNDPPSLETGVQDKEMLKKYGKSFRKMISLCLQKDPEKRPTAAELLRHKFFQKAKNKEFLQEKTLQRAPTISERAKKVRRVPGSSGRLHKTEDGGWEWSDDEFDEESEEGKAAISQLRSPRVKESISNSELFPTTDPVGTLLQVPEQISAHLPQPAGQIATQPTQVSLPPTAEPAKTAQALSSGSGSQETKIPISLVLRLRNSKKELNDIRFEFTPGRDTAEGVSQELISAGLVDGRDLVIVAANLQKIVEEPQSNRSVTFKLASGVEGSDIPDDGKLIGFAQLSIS
The note with it: OSR1; 1 uM. The method in brief: as §1

Assay [10] addresses T10, kinases of the scanMAX Kinase assay panel (Homo sapiens, UniProt P78368).
T10 construct: purchased DiscoverX Co. (contract measurement) scanMAX Kinase assay panel
The conditions noted are these: CSNK1G2; 1 uM. The essentials:
as §1

The target in assay [11] is T11, kinases of the scanMAX Kinase assay panel (Homo sapiens, UniProt P37173).
T11 construct: purchased DiscoverX Co. (contract measurement) scanMAX Kinase assay panel
The note with it: kinase TGFBR2; 1 uM in DMSO. The method in brief:
as §1

The target of assay [12] is T12, kinases of the scanMAX Kinase assay panel (Homo sapiens, UniProt Q9UKE5).
T12 construct: purchased DiscoverX Co. (contract measurement) scanMAX Kinase assay panel
T12 sequence (Q9UKE5 whole entry): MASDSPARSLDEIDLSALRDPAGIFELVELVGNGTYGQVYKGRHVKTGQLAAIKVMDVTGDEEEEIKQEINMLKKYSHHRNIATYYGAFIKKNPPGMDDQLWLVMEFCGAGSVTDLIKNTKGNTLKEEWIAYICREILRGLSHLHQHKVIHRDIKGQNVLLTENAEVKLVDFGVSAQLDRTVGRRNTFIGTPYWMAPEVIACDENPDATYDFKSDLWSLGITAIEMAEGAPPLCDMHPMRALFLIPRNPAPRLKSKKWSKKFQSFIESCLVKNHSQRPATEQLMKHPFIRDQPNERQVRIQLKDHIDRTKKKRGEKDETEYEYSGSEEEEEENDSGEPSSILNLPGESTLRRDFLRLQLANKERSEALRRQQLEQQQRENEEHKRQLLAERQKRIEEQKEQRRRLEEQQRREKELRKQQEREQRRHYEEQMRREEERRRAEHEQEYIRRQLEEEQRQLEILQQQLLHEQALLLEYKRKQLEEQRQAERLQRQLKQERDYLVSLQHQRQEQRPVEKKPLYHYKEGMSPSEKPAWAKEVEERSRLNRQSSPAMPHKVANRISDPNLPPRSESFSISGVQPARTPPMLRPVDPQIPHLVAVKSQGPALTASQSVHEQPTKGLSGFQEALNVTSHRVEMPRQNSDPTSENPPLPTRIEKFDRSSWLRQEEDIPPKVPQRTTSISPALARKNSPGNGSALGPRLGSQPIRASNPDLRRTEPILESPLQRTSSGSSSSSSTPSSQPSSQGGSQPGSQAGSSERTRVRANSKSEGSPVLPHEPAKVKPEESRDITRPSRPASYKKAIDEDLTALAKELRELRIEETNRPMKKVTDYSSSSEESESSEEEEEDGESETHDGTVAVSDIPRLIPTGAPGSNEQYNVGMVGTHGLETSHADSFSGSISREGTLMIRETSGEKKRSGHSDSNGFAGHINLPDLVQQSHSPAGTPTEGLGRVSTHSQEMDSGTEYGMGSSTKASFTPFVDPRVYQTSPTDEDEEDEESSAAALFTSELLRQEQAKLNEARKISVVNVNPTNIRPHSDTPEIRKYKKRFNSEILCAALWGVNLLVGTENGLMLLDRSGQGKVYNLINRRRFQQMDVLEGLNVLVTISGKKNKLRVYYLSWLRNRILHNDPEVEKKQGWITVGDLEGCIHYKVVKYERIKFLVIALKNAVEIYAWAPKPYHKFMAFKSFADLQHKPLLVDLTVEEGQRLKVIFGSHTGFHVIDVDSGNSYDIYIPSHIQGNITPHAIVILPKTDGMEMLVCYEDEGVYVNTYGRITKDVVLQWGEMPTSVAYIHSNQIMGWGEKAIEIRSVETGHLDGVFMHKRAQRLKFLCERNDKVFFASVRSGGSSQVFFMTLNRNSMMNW
The note with it: kinase TNIK; 1 uM in DMSO. The method in brief:
as §1

Where [13] appears, read: kinase TYK2(JH1domain-catalytic), read-out: % control, TYK2(JH1domain-catalytic).
[14] abbreviates: kinase TYK2(JH2domain-pseudokinase), read-out: % control, TYK2(JH2domain-pseudokinase).

As to `CNc1nc(Nc2ccc(C(=O)N3CCOCC3)cc2OC)nc2[nH]cc(C#N)c12` [Example 1, 2-((2-methoxy-4-(morpholine-4-carbonyl)phenyl)amino)-4-(methylamino)-7H-pyrrolo[2,3-d]pyrimidine-5-carbonitrile], the remaining binding at 1 µM in assay [1] was determined as 77%; in [2] it was 85%; in assay [3] it was 4.3%; in assay [4], 95%; in [5] it was 1%; in assay [6] (setting [13]), 80%. Further, the remaining binding at 1 µM in assay [6] (setting [14]) came to 66%; in [7], 95%; in [8], 78%; in assay [9], 21%; in [10], 58%; in assay [11], 82%. Moreover, the remaining binding at 1 µM in assay [12] was 95%.
Regarding `CC1(Nc2nc(Nc3cnn([C@H]4CCN(C5COC5)C[C@@H]4F)c3Cl)nc3[nH]cc(C#N)c23)CC1` [Example 52, 2-((5-chloro-1-((3S,4S)-3-fluoro-1-(oxetane-3-yl)piperidine-4-yl)-1H-pyrazole-4-yl)amino)((1-methylcyclopropyl)amino)-7H-pyrrolo[2,3-d]pyrimidine-5-carbonitrile], the remaining binding at 1 µM worked out at 100% in assay [1]; 4.8% in assay [2]; 0.8% in assay [3]; 74% in [4]; 0% in assay [5]; 0% in assay [6] (setting [13]). The remaining binding at 1 µM in assay [6] (setting [14]) was 7.2%; in assay [7], 71%; in assay [8], 3.1%; in [9], 0.45%; in [10], 0.1%; in assay [11], 100%. In addition, the remaining binding at 1 µM in [12] was 3.5%.
Turning to `CCNc1nc(Nc2ccc(C(=O)N3CCC(N4CCOCC4)CC3)cc2OC)nc2[nH]cc(C(F)(F)F)c12` [Example 104, (4-((4-(ethylamino)-5-(trifluoromethyl)-7H-pyrrolo[2,3-d]pyrimidine-2-yl)amino)-3-methoxyphenyl)(4-morpholinopiperidine-1-yl)methanone], the remaining binding at 1 µM is 100% in [1]; 84% in assay [2]; 12% in assay [3]; 100% in [4]; 100% in [5]; 100% in [6] (setting [13]). Also, the remaining binding at 1 µM in [6] (setting [14]) was determined as 100%; in assay [7] it was 100%; in assay [8] it was 86%; in [9], 7.5%; in assay [10], 100%; in assay [11], 96%. This molecule also displayed a remaining binding at 1 µM in assay [12] of 83%.
